Like-named read-outs stand apart in the source and are kept apart here.
Tests used:
[1] = molecular target: T1, α-amylase (Hi media RM 638) enzyme (Aspergillus oryzae, UniProt P0C1B3); test: biochemical
T1 construct: purchased Hi media RM 638
Experimental: The anti-diabetic activity of all the prepared derivatives (6a–i) and (7a–i) was evaluated following the method reported in refs. [31, 32]. In brief, to check the anti-diabetic activity of each compound, […] different concentrations, ranging from 250 to 50 μg, with a difference of 50 μg, were used and each concentration was treated with 200 μL of α-amylase (Hi media RM 638) enzyme to determine the anti-diabetic activity in triplicate at each concentration. Here, 0.6 mL of each sample at each concentration was mixed with 0.6 mL of buffered solution (0.03 M sodium phosphate buffer), which was subsequently incubated for 16 min at 37 °C. Afterwards, 1 mL of starch solution was added to the above solutions. In the next step, 1 mL of color-imparting reagent, […] (DNSA), was poured into each solution and the solution was left for 6 min in boiling water. Finally, the solutions were made up to 20 mL with distilled water. […] The absorbance value taken at 670 nm was used to check the performance of the newly obtained derivatives. The following Equation (1) was used to determine the percentage inhibition of each drug at the different concentrations. (1) %A=Acontrol−Asample/Acontrol×100 where %A, Acontrol and Asample are the percentage inhibition, absorbance blank and absorbance of sample, respectively.
The concentration of pyrazolo[3,4-b]pyridine derivative needed to inhibit the α-amylase activity by 50% is known as the IC50 value and is calculated from the plot of the percent inhibition against the log inhibitor concentration (i.e., synthesized drugs). A non-linear regression analysis on Graph Pad Prism 8.0.2. was performed on the plots to extract the IC50 value for each compound.

[2] = Table 2, in vitro anti-diabetic, ester derivatives, read-out: IC50 Value
[3] = Table 3, anti-diabetic, hydrazide derivatives, read-out: IC50 Value
[4] = Figure 6, read-out: IC50 (α-amylase inhibition)

IC50 [1, 2] | melting point | IC50 [1, 3] | IC50 [1, 4] | Molecule
– | 255 °C | 5.21 µM | – | Cc1nn(-c2ccccc2)c2nc(C(=O)NN)cc(-c3ccc(-c4cccs4)s3)c12 [Compound 7a, 4-([2,2′-Bithiophen]-5-yl)-3-methyl-1-phenyl-1H-pyrazolo[3,4-b]pyridine-6-carbohydrazide]
– | – | 5.18 µM | – | Cc1nn(-c2ccccc2)c2nc(C(=O)NN)cc(-c3ccc(-c4ccccc4)s3)c12 [Compound 7b, 3-Methyl-1-phenyl-4-(5-phenylthiophen-2-yl)-1H-pyrazolo[3,4-b]pyridine-6-carbohydrazide]
– | 276 °C | 5.17 µM | – | Cc1nn(-c2ccccc2)c2nc(C(=O)NN)cc(-c3ccc(-c4cccc5c4OCO5)s3)c12 [Compound 7c, 4-(5-(Benzo[d][1,3]dioxol-4-yl)thiophen-2-yl)-3-methyl-1-phenyl-1H-pyrazolo[3,4-b]pyridine-6-carbohydrazide]
– | 249 °C | 5.12 µM | – | COc1cc(OC)cc(-c2ccc(-c3cc(C(=O)NN)nc4c3c(C)nn4-c3ccccc3)s2)c1 [Compound 7d, 4-(5-(3,5-Dimethoxyphenyl)thiophen-2-yl)-3-methyl-1-phenyl-1H-pyrazolo[3,4-b]pyridine-6-carbohydrazide]
– | – | 8.94 µM | – | Cc1ccc(-c2ccc(-c3cc(C(=O)NN)nc4c3c(C)nn4-c3ccccc3)s2)c(C)c1 [Compound 7e, 4-(5-(2,4-Dimethylphenyl)thiophen-2-yl)-3-methyl-1-phenyl-1H-pyrazolo[3,4-b]pyridine-6-carbohydrazide]
– | – | 5.1 µM | – | Cc1nn(-c2ccccc2)c2nc(C(=O)NN)cc(-c3ccc(-c4cccc(C(C)(C)C)c4)s3)c12 [Compound 7f, 4-(5-(3-(Tert-butyl)phenyl)thiophen-2-yl)-3-methyl-1-phenyl-1H-pyrazolo[3,4-b]pyridine-6-carbohydrazide]
– | 275 °C | 5.15 µM | 5.16 µM | Cc1nn(-c2ccccc2)c2nc(C(=O)NN)cc(-c3ccc(-c4cccc(F)c4F)s3)c12 [Compound 7g, 4-(5-(2,3-Fluorophenyl)thiophen-2-yl)-3-methyl-1-phenyl-1H-pyrazolo[3,4-b]pyridine-6-carbohydrazide]
– | – | 5.19 µM | 6.19 µM | Cc1nn(-c2ccccc2)c2nc(C(=O)NN)cc(-c3ccc(-c4cccc(C(F)(F)F)c4)s3)c12 [Compound 7h, 3-Methyl-1-phenyl-4-(5-(3-(trifluoromethyl)phenyl)thiophen-2-yl)-1H-pyrazolo[3,4-b]pyridine-6-carbohydrazide]
– | 270 °C | 8.45 µM | – | Cc1nn(-c2ccccc2)c2nc(C(=O)NN)cc(-c3ccc(-c4ccc(Cl)s4)s3)c12 [Compound 7i, 4-(5′-Chloro-[2,2′-bithiophen]-5-yl)-3-methyl-1-phenyl-1H-pyrazolo[3,4-b]pyridine-6-carbohydrazide]

The remaining lines, values behind:

Molecule | IC50 [1, 2] | melting point | IC50 [1, 3] | IC50 [1, 4]
CCOC(=O)c1cc(-c2ccc(Br)s2)c2c(C)nn(-c3ccccc3)c2n1 [Compound 4, Ethyl 4-(5-Bromothiophen-2-yl)-3-methyl-1-phenyl-1H-pyrazolo[3,4-b]pyridine-6-carboxylate] | 7.26 µM | 203 to 205 °C | – | –
Cc1nn(-c2ccccc2)c2nc(C(=O)NN)cc(-c3ccc(Br)s3)c12 [Compound 5, 4-(5-Bromothiophen-2-yl)-3-methyl-1-phenyl-1H-pyrazolo[3,4-b]pyridine-6-carbohydrazide] | – | 265 °C | 7.91 µM | –
CCOC(=O)c1cc(-c2ccc(-c3cccs3)s2)c2c(C)nn(-c3ccccc3)c2n1 [Compound 6a, Ethyl 4-([2,2′-Bithiophen]-5-yl)-3-methyl-1-phenyl-1H-pyrazolo[3,4-b]pyridine-6-carboxylate] | 8.38 µM | 154 to 157 °C | – | –
CCOC(=O)c1cc(-c2ccc(-c3ccccc3)s2)c2c(C)nn(-c3ccccc3)c2n1 [Compound 6b, Ethyl 3-Methyl-1-phenyl-4-(5-phenylthiophen-2-yl)-1H-pyrazolo[3,4-b]pyridine-6-carboxylate] | 5.14 µM | – | – | –
CCOC(=O)c1cc(-c2ccc(-c3cccc4c3OCO4)s2)c2c(C)nn(-c3ccccc3)c2n1 [Compound 6c, Ethyl 4-(5-(Benzo[d][1,3]dioxol-4-yl)thiophen-2-yl)-3-methyl-1-phenyl-1H-pyrazolo[3,4-b]pyridine-6-carboxylate] | 5.15 µM | 127 °C | – | –
CCOC(=O)c1cc(-c2ccc(-c3cc(OC)cc(OC)c3)s2)c2c(C)nn(-c3ccccc3)c2n1 [Compound 6d, Ethyl 4-(5-(3,5-Dimethoxyphenyl)thiophene-2-yl)-3-methyl-1-phenyl-1H-pyrazolo[3,4-b]pyridine-6-carboxylate] | 7.06 µM | 147.5 °C | – | –
CCOC(=O)c1cc(-c2ccc(-c3cccc(C(C)(C)C)c3)s2)c2c(C)nn(-c3ccccc3)c2n1 [Compound 6f, Ethyl 4-(5-(3-(Tert-butyl)phenyl)thiophen-2-yl)-3-methyl-1-phenyl-1H-pyrazolo[3,4-b]pyridine-6-carboxylate] | 58.6 µM | – | – | 58.7 µM
CCOC(=O)c1cc(-c2ccc(-c3cccc(F)c3F)s2)c2c(C)nn(-c3ccccc3)c2n1 [Compound 6g, Ethyl 4-(5-(2,3-Difluorophenyl)thiophen-2-yl)-3-methyl-1-phenyl-1H-pyrazolo[3,4-b]pyridine-6-carboxylate] | 5.56 µM | 170.3 °C | – | 5.2 µM
CCOC(=O)c1cc(-c2ccc(-c3cccc(C(F)(F)F)c3)s2)c2c(C)nn(-c3ccccc3)c2n1 [Compound 6h, Ethyl 3-Methyl-1-phenyl-4-(5-(3-(trifluoromethyl)phenyl)thiophene-2-yl)-1H-pyrazolo[3,4-b]pyridine-6-carboxylate] | 5.2 µM | 149.5 °C | – | 5.56 µM
CCOC(=O)c1cc(-c2ccc(-c3ccc(Cl)s3)s2)c2c(C)nn(-c3ccccc3)c2n1 [Compound 6i, Ethyl 4-(5′-Chloro-[2,2′-bithiophen]-5-yl)-3-methyl-1-phenyl-1H-pyrazolo[3,4-b]pyridine-6-carboxylate] | 7.4 µM | 165 °C | – | –
Ethyl 4-(5-(3,5-Dimethylphenyl)thiophen-2-yl)-3-methyl-1-phenyl-1H-pyrazolo[3,4-b]pyridine-6-carboxylate [Compound 6e] | 9.01 µM | – | – | –
